Results taken from ChEMBL document CHEMBL6178021, “Optimization of Tambjamines Active against Multiple Stages of Malaria Parasites” (J Med Chem, 2025).
Converted amounts (≈) assume the structure as drawn.

Assays:
[1] = Solubility of the compound in potassium phosphate buffer at pH 7.4 by UV-vis spectroscopy
[2] = system: Plasmodium falciparum; test: microbe, parasite or virus in culture; conditions: Dd2, 72 h
Description: Antiplasmodial activity against asexual blood-stage Plasmodium falciparum Dd2 using 2% haematocrit and 0.2% parasitemia assessed as reduction in fluorescence measured after 72 hrs by Malaria SYBR Green I-based Fluorescence (MSF) assay

[3] = system: Plasmodium falciparum; test: Antiplasmodial activity against asexual blood-stage Plasmodium falciparum Tm90-C2B using 2% haematocrit and 0.2% parasitemia assessed as reduction in fluorescence measured after 72 hrs by Malaria SYBR Green I-based Fluorescence (MSF) assay; type: functional, organism-based
[4] = in vitro; conditions: mouse, liver microsomes
[5] = (§1) Apparent permeability across basolateral to apical side in MDCK transfected with human MDR1 cells incubated for 1 hr by LC-MS analysis; conditions: dog, mdck, 1 h
[6] = Metabolic stability in human liver microsomes assessed as half life measured up to 60 mins by LC/MS analysis; type: ADME, Microsome
[7] = system: MDR1 (human); test: Efflux ratio, ratio of apparent permeability across apical to basolateral side over basolateral to apical side in MDCK transfected with human MDR1 cells incubated for 1 hr by LC-MS analysis; conditions: dog
[8] = system: MDR1 (human); test: (§2) Apparent permeability across apical to basolateral side in MDCK transfected with human MDR1 cells incubated for 1 hr by LC-MS analysis; conditions: dog, MDCK-MDR1
[9] = Metabolic stability in mouse liver microsomes assessed as half life measured up to 60 mins by LC/MS analysis; type: ADME, Microsome
[10] = in vitro; conditions: human, liver microsomes
[11] = system: Plasmodium yoelii; test: Antimalarial activity against erythrocytic Plasmodium yoelii MRA-428 infected in CF1 mouse assessed as reduction in parasitemia at 50 mg/kg, po once daily for 4 days measured on day 5; type: functional; parameters: scale not given: the % may be the effect or the level left; conditions: time 4 day
[12] = system: Plasmodium yoelii; test: Antimalarial activity against erythrocytic Plasmodium yoelii MRA-428 infected in CF1 mouse assessed as cured mouse at 25 mg/kg, po once daily for 4 days measured on day 28 day; type: functional, organism-based; conditions: time 4.0 day
[13] = system: HepG2; test: (§3) Cytotoxicity against human HepG2 cells assessed as cell viability measured after 48 hrs by MTT assay; type: toxicity, cell-based; conditions: hepg2
[14] = system: Plasmodium yoelii; test: Antimalarial activity against erythrocytic Plasmodium yoelii MRA-428 infected in CF1 mouse assessed as cured mouse at 50 mg/kg, po once daily for 4 days measured on day 28 day; type: functional, organism-based; conditions: time 4.0 day
[15] = system: Plasmodium falciparum; test: microbe, parasite or virus in culture; conditions: D6, 72 h
Description: Antiplasmodial activity against asexual blood-stage Plasmodium falciparum D6 using 2% haematocrit and 0.2% parasitemia assessed as reduction in fluorescence measured after 72 hrs by Malaria SYBR Green I-based Fluorescence (MSF) assay

[16] = system: Plasmodium yoelii; test: Antimalarial activity against erythrocytic Plasmodium yoelii MRA-428 infected in CF1 mouse assessed as reduction in parasitemia at 10 mg/kg, po once daily for 4 days measured on day 5; type: functional; parameters: scale not given: the % may be the effect or the level left; conditions: time 4 day
[17] = system: Plasmodium yoelii; test: Antimalarial activity against erythrocytic Plasmodium yoelii MRA-428 infected in CF1 mouse assessed as reduction in parasitemia at 25 mg/kg, po once daily for 4 days measured on day 5; type: functional; parameters: scale not given: the % may be the effect or the level left; conditions: time 4 day
[18] = system: MDR1 (human); test: as §1; conditions: dog, MDCK-MDR1
[19] = as §2; conditions: dog, mdck, 1 h
[20] = in vitro; conditions: human
Description: Selectivity index, ratio of IC50 for cytotoxicity against human HepG2 cells to IC50 for antiplasmodial activity against asexual blood-stage Plasmodium falciparum D6

[21] = system: Plasmodium yoelii; test: Antimalarial activity against erythrocytic Plasmodium yoelii MRA-428 infected in CF1 mouse assessed as reduction in parasitemia at 80 mg/kg, po once daily for 4 days measured on day 5; type: functional; parameters: scale not given: the % may be the effect or the level left; conditions: time 4 day
[22] = system: Plasmodium yoelii; test: Antimalarial activity against erythrocytic Plasmodium yoelii MRA-428 infected in CF1 mouse assessed as cured mouse at 80 mg/kg, po once daily for 4 days measured on day 28 day; type: functional, organism-based; conditions: time 4.0 day
[23] = as §3; type: toxicity, cell-based; conditions: human, HepG2 cells
[24] = system: Plasmodium berghei; test: Anti-malarial activity against Luciferase-expressing Plasmodium berghei sporozoites inoculated in po dosed Albino C57BL/6 mouse malaria model assessed as elimination of parasites in blood by measuring bioluminescence signal measured after 72 hrs; type: functional, organism-based
[25] = system: Plasmodium berghei; test: Anti-malarial activity against Luciferase-expressing Plasmodium berghei sporozoites inoculated in po dosed Albino C57BL/6 mouse malaria model assessed as elimination of parasites in liver by measuring bioluminescence signal measured after 48 hrs; type: functional, organism-based

SMILES	solubility ([1]; buffer) [µM]	IC50 [2] [nM]	IC50 [3] [nM]	microsomal CLint at 1 h [4] [µL/min/mg]	Papp [5]	half-life [6] [h]	efflux ratio at 1 h [7]	Papp A→B at 1 h [8] [×10⁻⁶ cm/s]	half-life [9] [h]	microsomal CLint at 1 h [10] [µL/min/mg]	Activity [11] [%]	Activity [12]	IC50 [13] [nM]	Activity [14]	IC50 [15] [nM]	Activity [16] [%]	Activity [17] [%]	Papp [19]	selectivity ratio [20]	also measured
CCC1=C(CC)/C(=C/NC2CCCCC2)N=C1c1ccc(Br)[nH]1	4.46 (≈ 1.68 µg/mL)	336	172	16	0.15 ×10⁻⁶ cm/s	> 1	0.038	0.004	> 1	–	–	–	–	–	–	–	–	–	–	–
CCC1=C(CC)/C(=C/NC2CCCCCCC2)N=C1c1ccc(CC)[nH]1	< 3.125	7.21	7.8	14.6	0.28 ×10⁻⁶ cm/s	> 1	–	–	> 1	7	100	Not active; None Of The Mouse Cured Out Of Four Tested	2720	Not active; None Of The Mouse Cured Out Of Four Tested	15.9	63.1	100	–	–	–
CCC1=C(CC)/C(=C/NC2CCCCCC2)N=C1c1ccc(C)[nH]1	35.9 (≈ 11.7 µg/mL)	3.83	9.02	16.6	0.45 ×10⁻⁶ cm/s	> 1	–	0.007	> 1	18.3	100	Not active; None Of The Mouse Cured Out Of Four Tested	4220	Not active; None Of The Mouse Cured Out Of Four Tested	4.47	92.2	100	–	–	–
CCc1ccc(C2=N/C(=C\NC3CCCCCC3)C3=C2CCCC3)[nH]1	15.4 (≈ 5.2 µg/mL)	1.36	1.74	10.3	–	> 1	–	–	> 1	8.31	100	Not active; None Of The Mouse Cured Out Of Four Tested	1060	Not active; None Of The Mouse Cured Out Of Four Tested	4.8	22.7	100	0.24 ×10⁻⁶ cm/s	–	Papp B→A at 1 h [18]: 0.003 ×10⁻⁶ cm/s
CCC1=C(CC)/C(=C/NC23C[C@H]4C[C@@H](C2)C[C@@H](C3)C4)N=C1c1ccc(Br)[nH]1	25.8 (≈ 11.1 µg/mL)	24.6	15.6	7.36	0.39 ×10⁻⁶ cm/s	> 1	0.23	0.002	> 1	14.4	–	–	4020	–	18.1	33.1	67.1	–	222	–
CCC1=C(CC)/C(=C/NC2CCCCC2)N=C1c1ccc(Cc2ccc(OC)cc2)[nH]1	14.4 (≈ 6.01 µg/mL)	7.25	11.6	1.94	0.43 ×10⁻⁶ cm/s	> 1	–	–	> 1	3.37	–	–	7810	–	9.26	0	0	0.15 ×10⁻⁶ cm/s	–	–
CCC1=C(CC)/C(=C/N[C@H]2CC[C@H](C)CC2)N=C1c1ccc[nH]1	205 (≈ 63.9 µg/mL)	89.3	97.1	37	–	–	8.7	0.015	–	59.5	100	Active; Two Mouse Cured Out Of Four	–	Active; Two Mouse Cured Out Of Four	67.9	88.8	100	–	235	Papp B→A at 1 h [18]: 0.13 ×10⁻⁶ cm/s; Activity [21]: 100%; Activity [22]: Not active; None Of The Mouse Cured Out Of Four Tested
[2H]C([2H])(C)c1ccc(C2=N/C(=C\NC3CCCCCC3)C(C)=C2C)[nH]1	42 (≈ 13.2 µg/mL)	5.91	10.1	16	0.007 10^-6 cm/s	> 1	–	–	> 1	14	–	–	6550	–	5.08	78.5	96.5	0.29 10^-6 cm/s	–	–
CCC1=C(CC)/C(=C/NC23C[C@H]4C[C@@H](C2)C[C@@H](C3)C4)N=C1c1cc2cc(Cl)ccc2[nH]1	18.3 (≈ 7.94 µg/mL)	133	175	4.72	0.85 ×10⁻⁶ cm/s	> 1	0.37	0.002	> 1	8.8	–	–	5020	–	106	–	–	–	47	–
CCC1=C(CC)/C(=C/NC23CC4CC(CC(C4)C2)C3)N=C1c1cc2ccccc2[nH]1	–	59.3	410	28.3	–	> 1	0.14	–	0.818	4.02	–	–	–	–	70.2	–	–	0.58 ×10⁻⁶ cm/s	99.8	solubility ([1]; potassium phosphate buffer): 11.5 µM (≈ 4.6 µg/mL); IC50 at 48 h [23]: 7010 nM
COc1ccc(Cc2ccc(C3=N/C(=C\NC4CCCCCC4)C4=C3OCCO4)[nH]2)cc1	5.52 (≈ 2.39 µg/mL)	21.3	15.1	20.6	0.57 ×10⁻⁶ cm/s	> 1	–	–	> 1	16.1	–	–	1480	–	11.9	1.5	–	–	–	–
CCC1=C(CC)/C(=C/NC2CCCCCC2)N=C1c1ccc(Cc2ccc(OC)cc2)[nH]1	20.5 (≈ 8.85 µg/mL)	8.42	16.3	2.27	–	> 1	–	–	> 1	2.23	–	–	4340	–	9.93	0	0	0.18 ×10⁻⁶ cm/s	–	–
CCC1=C(CC)/C(=C/NC23CC4CC(CC(C4)C2)C3)N=C1c1ccc[nH]1	–	1.01	–	–	–	> 1	–	–	0.267	–	100	Active; Three Mouse Cured Out Of Four	–	Active; Three Mouse Cured Out Of Four	1.6	82.5	100	–	2440	Activity [24]: Dose-dependent-effect; IC50 at 48 h [23]: 3900 nM; Activity [21]: 100%; Activity [22]: Active; Four Mouse Cured Out Of Four; Activity [25]: Dose-dependent-effect
CCC1=C(CC)/C(=C/NC2CCCCC2)N=C1c1ccc(CC)[nH]1	31.3 (≈ 10.2 µg/mL)	4.34	7.09	14.8	–	> 1	–	0.002	> 1	17	100	Active; Two Mouse Cured Out Of Four	5170	Not active; None Of The Mouse Cured Out Of Four Tested	9.03	98.9	100	–	–	Papp B→A at 1 h [18]: 0.091 ×10⁻⁶ cm/s; Activity [21]: 100%; Activity [22]: Active; Two Mouse Cured Out Of Four
COc1ccc(Cc2ccc(C3=N/C(=C\NC4CCCCCC4)C4=C3CCCC4)[nH]2)cc1	11.4 (≈ 4.9 µg/mL)	5.56	2.8	2.07	–	> 1	–	–	> 1	3.18	–	–	1340	–	6.1	0	0	0.7 ×10⁻⁶ cm/s	–	–
